# According to ChEMBL document CHEMBL1201862, “PubChem BioAssay data set” (2004):
#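 Values below derive from 48-hour exposures of cells grown in 96-well plates, with endpoints linearly interpolated between the two concentrations bracketing the appropriate inhibition level. GI50: concentration for 50% inhibition of growth.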 Activity calls are given as the source filed them. Rule as the data show it: active = GI50 up to about 1.1 µM and inactive = higher.
# Experiments:
# Experiment in all cases: growth of human tumour cells (NCI), 48 h
# SK-OV-3 = tested on: SK-OV-3
# U-251 = tested on: U-251
# SK-MEL-28 = tested on: SK-MEL-28
# TK-10 = tested on: TK-10
# M14 = tested on: M14
# MDA-N = tested on: MDA-N
# OVCAR-3 = tested on: OVCAR-3
# CCRF-CEM = tested on: CCRF-CEM
# OVCAR-5 = tested on: OVCAR-5
# UACC-257 = tested on: UACC-257
# UO-31 = tested on: UO-31
# OVCAR-8 = tested on: OVCAR-8
# SK-MEL-5 = tested on: SK-MEL-5
# ACHN = tested on: ACHN
# Malme-3M = tested on: Malme-3M
# A498 = tested on: A498
# HOP-62 = tested on: HOP-62
# SF-539 = tested on: SF-539
# NCI-H23 = tested on: NCI-H23
# HCC 2998 = tested on: HCC 2998
# COLO 205 = tested on: COLO 205
# NCI-H226 = tested on: NCI-H226
# PC-3 = tested on: PC-3
# Hs-578T = tested on: Hs-578T
# CAKI-1 = tested on: CAKI-1
# EKVX = tested on: EKVX
# A549 = tested on: A549
# MOLT-4 = tested on: MOLT-4
# 786-0 = tested on: 786-0
# HCT-116 = tested on: HCT-116
# NCI/ADR-RES = tested on: NCI/ADR-RES
# MDA-MB-435 = tested on: MDA-MB-435
# NCI-H460 = tested on: NCI-H460
# HL-60 = tested on: HL-60
# LOX IMVI = tested on: LOX IMVI
# IGROV-1 = tested on: IGROV-1
# SF-268 = tested on: SF-268
# HT-29 = tested on: HT-29
# SR = tested on: SR
# DU-145 = tested on: DU-145
# RPMI-8226 = tested on: RPMI-8226
# SK-MEL-2 = tested on: SK-MEL-2
# SNB-19 = tested on: SNB-19
# SW-620 = tested on: SW-620
# UACC-62 = tested on: UACC-62
# NCI-H522 = tested on: NCI-H522
# BT-549 = tested on: BT-549
# MDA-MB-231 = tested on: MDA-MB-231
# SNB-75 = tested on: SNB-75
# KM12 = tested on: KM12
# T47D = tested on: T47D
# SF-295 = tested on: SF-295
# MCF7 = tested on: MCF7
# K562 = tested on: K562
# SN12C = tested on: SN12C
# HCT-15 = tested on: HCT-15
# HOP-92 = tested on: HOP-92
# OVCAR-4 = tested on: OVCAR-4
# RXF 393 = tested on: RXF 393
smiles,measurement,setting,value
COc1ccc(OC2OC(CO)C(OCc3ccccc3)C(OCc3ccccc3)C2OCc2ccccc2)cc1 (stereo unspecified),GI50,SK-OV-3,> 100 µM (inactive)
same,GI50,U-251,25.7 µM (inactive)
same,GI50,SK-MEL-28,> 100 µM (inactive)
same,GI50,TK-10,> 100 µM (inactive)
same,GI50,M14,> 100 µM (inactive)
same,GI50,MDA-N,76 µM (inactive)
same,GI50,OVCAR-3,> 100 µM (inactive)
same,GI50,CCRF-CEM,6.98 µM (inactive)
same,GI50,OVCAR-5,> 100 µM (inactive)
same,GI50,UACC-257,> 100 µM (inactive)
same,GI50,UO-31,41 µM (inactive)
same,GI50,OVCAR-8,> 100 µM (inactive)
same,GI50,SK-MEL-5,54.8 µM (inactive)
same,GI50,ACHN,31.6 µM (inactive)
same,GI50,Malme-3M,39.1 µM (inactive)
same,GI50,A498,> 100 µM (inactive)
same,GI50,HOP-62,> 100 µM (inactive)
same,GI50,SF-539,63.2 µM (inactive)
same,GI50,NCI-H23,14.4 µM (inactive)
same,GI50,HCC 2998,> 100 µM (inactive)
same,GI50,COLO 205,44.4 µM (inactive)
same,GI50,NCI-H226,> 100 µM (inactive)
same,GI50,PC-3,1.48 µM (inactive)
same,GI50,Hs-578T,56.9 µM (inactive)
same,GI50,CAKI-1,> 100 µM (inactive)
same,GI50,EKVX,11.4 µM (inactive)
same,GI50,A549,11.1 µM (inactive)
same,GI50,MOLT-4,2.02 µM (inactive)
same,GI50,786-0,39.5 µM (inactive)
same,GI50,HCT-116,14.8 µM (inactive)
same,GI50,NCI/ADR-RES,61.9 µM (inactive)
same,GI50,MDA-MB-435,> 100 µM (inactive)
same,GI50,NCI-H460,15.8 µM (inactive)
same,GI50,HL-60,88.9 µM (inactive)
same,GI50,LOX IMVI,> 100 µM (inactive)
same,GI50,IGROV-1,> 100 µM (inactive)
same,GI50,SF-268,22.3 µM (inactive)
same,GI50,HT-29,9.79 µM (inactive)
same,GI50,SR,15.5 µM (inactive)
same,GI50,DU-145,> 100 µM (inactive)
same,GI50,RPMI-8226,> 100 µM (inactive)
same,GI50,SK-MEL-2,> 100 µM (inactive)
same,GI50,SNB-19,> 100 µM (inactive)
same,GI50,SW-620,> 100 µM (inactive)
same,GI50,UACC-62,> 100 µM (inactive)
same,GI50,NCI-H522,40 µM (inactive)
same,GI50,BT-549,> 100 µM (inactive)
same,GI50,MDA-MB-231,> 100 µM (inactive)
same,GI50,SNB-75,11.3 µM (inactive)
same,GI50,KM12,72.9 µM (inactive)
same,GI50,T47D,18.8 µM (inactive)
same,GI50,SF-295,76.7 µM (inactive)
same,GI50,MCF7,25.9 µM (inactive)
same,GI50,K562,6.1 µM (inactive)
same,GI50,SN12C,17.5 µM (inactive)
C=C1C(=O)C2(C)OC2(C)C1C(=O)O (stereo unspecified),GI50,SK-OV-3,> 100 µM (inactive)
same,GI50,U-251,> 100 µM (inactive)
same,GI50,SK-MEL-28,> 100 µM (inactive)
same,GI50,TK-10,> 100 µM (inactive)
same,GI50,M14,> 100 µM (inactive)
same,GI50,MDA-N,> 100 µM (inactive)
same,GI50,OVCAR-3,> 100 µM (inactive)
same,GI50,CCRF-CEM,> 100 µM (inactive)
same,GI50,OVCAR-5,> 100 µM (inactive)
same,GI50,UACC-257,> 100 µM (inactive)
same,GI50,UO-31,> 100 µM (inactive)
same,GI50,OVCAR-8,> 100 µM (inactive)
same,GI50,SK-MEL-5,> 100 µM (inactive)
same,GI50,ACHN,> 100 µM (inactive)
same,GI50,HOP-62,> 100 µM (inactive)
same,GI50,SF-539,> 100 µM (inactive)
same,GI50,NCI-H23,> 100 µM (inactive)
same,GI50,HCC 2998,> 100 µM (inactive)
same,GI50,COLO 205,> 100 µM (inactive)
same,GI50,NCI-H226,> 100 µM (inactive)
same,GI50,HCT-15,> 100 µM
same,GI50,PC-3,> 100 µM (inactive)
same,GI50,Hs-578T,> 100 µM (inactive)
same,GI50,CAKI-1,> 100 µM (inactive)
same,GI50,EKVX,> 100 µM (inactive)
same,GI50,A549,> 100 µM (inactive)
same,GI50,786-0,> 100 µM (inactive)
same,GI50,HOP-92,> 100 µM (inactive)
same,GI50,HCT-116,> 100 µM (inactive)
same,GI50,NCI/ADR-RES,> 100 µM (inactive)
same,GI50,MDA-MB-435,> 100 µM (inactive)
same,GI50,NCI-H460,> 100 µM (inactive)
same,GI50,HL-60,> 100 µM (inactive)
same,GI50,LOX IMVI,> 100 µM (inactive)
same,GI50,IGROV-1,> 100 µM (inactive)
same,GI50,SF-268,> 100 µM (inactive)
same,GI50,HT-29,> 100 µM (inactive)
same,GI50,OVCAR-4,> 100 µM (inactive)
same,GI50,SR,> 100 µM (inactive)
same,GI50,DU-145,> 100 µM (inactive)
same,GI50,RPMI-8226,> 100 µM (inactive)
same,GI50,SK-MEL-2,> 100 µM (inactive)
same,GI50,SNB-19,> 100 µM (inactive)
same,GI50,SW-620,> 100 µM (inactive)
same,GI50,UACC-62,> 100 µM (inactive)
same,GI50,NCI-H522,> 100 µM (inactive)
same,GI50,BT-549,> 100 µM (inactive)
same,GI50,MDA-MB-231,> 100 µM (inactive)
same,GI50,RXF 393,> 100 µM (inactive)
same,GI50,SNB-75,> 100 µM (inactive)
same,GI50,KM12,> 100 µM (inactive)
same,GI50,T47D,> 100 µM (inactive)
same,GI50,SF-295,> 100 µM (inactive)
same,GI50,MCF7,> 100 µM (inactive)
same,GI50,K562,> 100 µM (inactive)
same,GI50,SN12C,> 100 µM (inactive)
